From patent US9271963B2, “Selective inhibitors of human corticosteroid synthases” (UNIVERSITAT DES SAARLANDES, priority 2005, dated 2016)
Like-named read-outs stand apart in the source and are kept apart here.

Tests used:
human CYP17 = human CYP17 (Homo sapiens (Human), UniProt P05093); assay: CYP17 inhibition, membrane fraction of E. coli expressing human CYP17; assay type: biochemical; settings: Table 1, progesterone 2.5 μM; for IC50: read-out: IC50 Human CYP17 (values in brackets); for inhibition at 2.5 µM: inhibitor 2.5 μM, read-out: % Inhib. Human CYP17
human placental CYP19 = human placental CYP19 (Homo sapiens (Human), UniProt P11511); assay: CYP19 (aromatase) inhibition, human placental microsomes; assay type: biochemical; settings: Table 1, androstenedione 2.5 μM; for % Inhib. Human CYP19 (values in brackets): inhibitor concentration not given
[1] = test system: steroid production in H295R cells; assay: cells; assay type: cell-based, human; settings: for aldosterone secretion: within 6 hours; for inhibition at 2.5 µM / IC50: Homo sapiens, NCI-H295R; for inhibition at 2.5 µM: inhibitor 2.5 μM
CYP11B1 [2] = target: T1, CYP11B1 (Homo sapiens (Human), UniProt P15538); settings: NCI-H295R
CYP11B1 [3] = target: T1, CYP11B1; assay: cell-based; settings: NCI-H295R, read-out: NCI-H295R CYP11B1 RSS % inhibition
CYP11B2 [4] = target: T2, CYP11B2 (Homo sapiens (Human), UniProt P19099); assay: cell-based; settings: NCI-H295R
CYP11B2 [5] = target: T2, CYP11B2; assay: Screening test in transgenic fission yeast (S. pombe) expressing human CYP11B2; assay type: cell-based
CYP11B1 [6] = target: T1, CYP11B1; assay: Inhibition test in V79 MZh11B1 cells (hamster fibroblasts expressing human CYP11B1); assay type: cell-based
CYP11B2 [7] = target: T2, CYP11B2; assay: Inhibition test in V79 MZh11B2 cells (hamster fibroblasts expressing human CYP11B2); assay type: cell-based; settings: Table 1; deoxycorticosterone substrate 100 nM; read-out: IC50 value V79 11B2 hCYP11B2
[8] = H295R, 6 h incubation, read-out: % inhibition of DHEA production
[9] = H295R, 6 h incubation, read-out: % inhibition of aldosterone production
[10] = H295R, 6 h incubation, read-out: % inhibition of androstendione production
[11] = H295R, 6 h incubation, read-out: % inhibition of cortisol production
[12] = read-out: NCI-H295R CYP11B2 B % inhibition
[13] = read-out: NCI-H295R CYP11B2 DOC % inhibition
[14] = Table 1, S. pombe cells expressing human CYP11B2, deoxycorticosterone 100 nM, inhibitor 500 nM, read-out: % Inhib. Human hCYP11B2
[15] = Table 1, deoxycorticosterone substrate 100 nM, read-out: IC50 value V79 11B1 hCYP11B1
[16] = read-out: IC50 in V79MZh 11B1 cells (CYP11B1 inhibition)

Chain of human placental CYP19 (P11511 whole entry): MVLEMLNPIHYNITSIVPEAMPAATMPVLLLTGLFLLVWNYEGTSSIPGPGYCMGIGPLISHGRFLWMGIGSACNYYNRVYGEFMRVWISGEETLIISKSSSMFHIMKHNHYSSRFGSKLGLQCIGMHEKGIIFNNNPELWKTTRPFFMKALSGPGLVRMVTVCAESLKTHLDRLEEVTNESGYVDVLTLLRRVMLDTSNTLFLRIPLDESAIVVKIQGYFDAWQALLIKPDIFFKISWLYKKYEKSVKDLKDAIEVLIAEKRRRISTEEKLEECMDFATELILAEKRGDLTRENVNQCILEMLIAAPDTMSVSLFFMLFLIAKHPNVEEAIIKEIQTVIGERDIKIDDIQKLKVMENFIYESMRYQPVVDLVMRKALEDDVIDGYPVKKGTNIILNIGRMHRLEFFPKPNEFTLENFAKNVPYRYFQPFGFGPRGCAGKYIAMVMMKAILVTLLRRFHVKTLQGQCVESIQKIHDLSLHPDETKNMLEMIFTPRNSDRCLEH
T1 sequence (P15538 25-503): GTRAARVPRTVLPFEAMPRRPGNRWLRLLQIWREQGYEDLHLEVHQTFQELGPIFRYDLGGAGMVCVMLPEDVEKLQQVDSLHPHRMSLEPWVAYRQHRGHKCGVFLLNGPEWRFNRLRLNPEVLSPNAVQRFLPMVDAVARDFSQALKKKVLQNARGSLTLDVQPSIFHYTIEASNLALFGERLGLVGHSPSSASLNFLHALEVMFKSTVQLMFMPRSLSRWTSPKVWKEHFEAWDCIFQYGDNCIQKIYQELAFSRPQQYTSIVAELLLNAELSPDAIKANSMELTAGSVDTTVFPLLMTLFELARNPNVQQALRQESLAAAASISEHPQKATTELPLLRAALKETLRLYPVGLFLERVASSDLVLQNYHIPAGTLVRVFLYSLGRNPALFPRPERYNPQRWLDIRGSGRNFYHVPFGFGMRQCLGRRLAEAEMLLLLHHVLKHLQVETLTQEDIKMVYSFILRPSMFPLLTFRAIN
T2 sequence (P19099 25-503): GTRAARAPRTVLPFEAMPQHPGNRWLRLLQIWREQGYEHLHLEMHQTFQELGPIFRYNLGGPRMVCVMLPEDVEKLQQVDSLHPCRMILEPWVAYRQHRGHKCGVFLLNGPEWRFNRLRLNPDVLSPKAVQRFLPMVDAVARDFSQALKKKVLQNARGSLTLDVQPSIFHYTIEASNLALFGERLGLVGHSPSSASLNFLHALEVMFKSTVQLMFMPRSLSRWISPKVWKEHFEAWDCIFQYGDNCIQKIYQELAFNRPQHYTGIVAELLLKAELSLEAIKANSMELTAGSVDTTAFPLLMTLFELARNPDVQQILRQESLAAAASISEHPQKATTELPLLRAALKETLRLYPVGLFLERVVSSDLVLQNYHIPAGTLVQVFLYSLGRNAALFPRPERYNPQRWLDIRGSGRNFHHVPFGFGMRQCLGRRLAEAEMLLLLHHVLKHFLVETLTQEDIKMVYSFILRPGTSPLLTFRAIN
Chain of human CYP17 (P05093 whole entry): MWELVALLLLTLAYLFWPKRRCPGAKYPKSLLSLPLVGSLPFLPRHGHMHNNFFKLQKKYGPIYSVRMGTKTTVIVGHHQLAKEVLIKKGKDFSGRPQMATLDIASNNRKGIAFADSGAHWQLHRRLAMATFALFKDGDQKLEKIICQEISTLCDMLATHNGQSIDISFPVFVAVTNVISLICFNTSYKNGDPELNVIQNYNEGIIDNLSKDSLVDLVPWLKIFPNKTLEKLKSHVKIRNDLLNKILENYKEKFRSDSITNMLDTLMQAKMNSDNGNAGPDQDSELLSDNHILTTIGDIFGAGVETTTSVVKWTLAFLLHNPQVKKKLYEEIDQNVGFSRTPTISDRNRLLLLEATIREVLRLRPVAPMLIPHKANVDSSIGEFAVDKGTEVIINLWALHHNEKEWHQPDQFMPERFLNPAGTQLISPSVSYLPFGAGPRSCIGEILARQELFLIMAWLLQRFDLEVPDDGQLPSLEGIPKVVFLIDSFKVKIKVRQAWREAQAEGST

SMILES | IC50 (human placental CYP19) | inhibition at 0.5 µM (CYP11B2 [5]; [14]) | IC50 (CYP11B1 [6]; [15]) | IC50 (CYP11B2 [7]) | inhibition at 2.5 µM (human CYP17) | other results
COc1ccc2cc(-c3cccnc3)ccc2c1 [Compound 2, 3-(6-Methoxy-2-naphthyl)pyridine] | 586 nM |  |  |  |  | IC50 (human CYP17): 667 nM; cortisol production compared with aldosterone production ([1]; H295R model): cortisol production is inhibited more strongly than the aldosterone production; androsterone production (so in the source) ([1]; H295R, 6 h): inhibited only to a low extent; aldosterone secretion ([1]; H295R): significant concentration-dependent decrease; inhibition at 2.5 µM [1, 8]: 84.5 ± 2%; inhibition at 2.5 µM [1, 9]: 56.4 ± 3.5%; inhibition at 2.5 µM [1, 10]: 84.6 ± 2%; inhibition at 2.5 µM [1, 11]: 78.6 ± 5.4%; IC50 ([1]; H295R, 6 h incubation, read-out: IC50 of DHEA production): < 1 nM; IC50 ([1]; H295R, 6 h incubation, read-out: IC50 of aldosterone production): 963 nM; IC50 ([1]; H295R, 6 h incubation, read-out: IC50 of androstendione production): < 1 nM; IC50 ([1]; H295R, 6 h incubation, read-out: IC50 of cortisol production): < 1 nM; influence on CYP11B1 in comparison with fadrozole (CYP11B1 [2]): clearly lower extent; inhibition at 2.5 µM (CYP11B1 [3]): 48.5 ± 2.9%; inhibition at 2.5 µM (CYP11B2 [4]; [12]): 49.5 ± 2.4%; inhibition at 2.5 µM (CYP11B2 [4]; [13]): 81.4 ± 6.6%
c1ccc2cc(-n3ccnc3)ccc2c1 [Compound 23, 1-(2-Naphthyl)-1H-imidazole] |  | 80% | 1050 nM | 38 nM | 13% | 
COc1cc2ccccc2cc1-n1ccnc1 [Compound 24, 1-(3-Methoxy-2-naphthyl)-1H-imidazole] | 129 nM | 86% | 5020 nM | 40 nM | 4% | 
COc1ccc2cc(-c3cccnc3)ccc2c1Br [Compound 10, 3-(5-Bromo-6-methoxy-2-naphthyl)pyridine] | 9110 nM | 68% | 1530 nM | 33 nM | 38% | 
COc1ccc2cc(-c3cncnc3)ccc2c1 [Compound 30, 5-(6-Methoxy-2-naphthyl)pyrimidine] |  | 46% |  |  |  | 
COc1cc2ccccc2cc1-c1cccnc1 [Compound 15, 3-(3-Methoxy-2-naphthyl)pyridine] |  | 38% |  |  |  | 
C1=C(n2ccnc2)CCc2ccccc21 [Compound 45, 1-(3,4-Dihydronaphthalene-2-yl)-1H-imidazole] |  |  |  |  |  | CYP11B2 inhibition in S. pombe (CYP11B2 [5]): very low; inhibition at 0.5 µM (CYP11B2 [5]; Table 2, S. pombe cells expressing human CYP11B2, deoxycorticosterone 100 nM, inhibitor 500 nM, read-out: % Inhibition Human hCYP11B2): 34%
c1cncc(-c2ccc3ccccc3n2)c1 [Compound 20, 2-Pyridin-3-ylquinoline] |  | 53% |  |  |  | 
COc1ccc2c(Cl)c(-c3cccnc3)ccc2c1Cl [Compound 12, 3-(1,5-Dichloro-6-methoxy-2-naphthyl)pyridine] | 970 nM | 82% | 1540 nM | 28 nM |  | IC50 (human CYP17): 233 nM
N#Cc1ccc2cc(-c3cccnc3)ccc2c1 [Compound 8, 6-Pyridin-3-yl-2-naphthonitrile] |  | 98% | 691 nM | 3 nM |  | IC50 (human CYP17): 686 nM; % Inhib. Human CYP19 (values in brackets) (human placental CYP19): [44] %
Brc1ccc2cc(-c3cccnc3)ccc2c1 [Compound 4, 3-(6-Bromo-2-naphthyl)pyridine] |  | 85% | 899 nM | 15 nM | 46% | % Inhib. Human CYP19 (values in brackets) (human placental CYP19): [33] %
COc1ccc2cc(-c3cccnc3)ccc2c1Cl [Compound 9, 3-(5-Chloro-6-methoxy-2-naphthyl)pyridine] | 1800 nM | 86% | 569 nM | 13 nM | 32% | 
c1cncc(-c2cnc3ccccc3c2)c1 [Compound 19, 3-Pyridin-3-ylquinoline] |  | 40% |  |  |  | 
COc1ccc2ccc(-c3cccnc3)c(Cl)c2c1 [Compound 14, 3-(1-Chloro-7-methoxy-2-naphthyl)pyridine] |  | 85% | 771 nM | 29 nM |  | IC50 (human CYP17): 27 nM; % Inhib. Human CYP19 (values in brackets) (human placental CYP19): [65] %
c1ccc2cc(-c3cnco3)ccc2c1 [Compound 29, 5-(2-Naphthyl)-1,3-oxazole] |  | 16% | 805 nM |  |  | CYP11B2 inhibition in S. pombe (CYP11B2 [5]): very low; IC50 (CYP11B1 [6]; [16]): 206 to 805 nM
c1ccc2cc(-c3c[nH]cn3)ccc2c1 [Compound 27, 4(5)-(2-Naphthyl)-1H-imidazole] |  |  | 206 nM |  |  | % Inhib. Human hCYP11B2 (CYP11B2 [5]; Table 1, S. pombe cells expressing human CYP11B2, deoxycorticosterone 100 nM, inhibitor 500 nM): 41%; IC50 (CYP11B1 [6]; [16]): 206 nM
CC(=O)N1CCN(c2ccc(OCC3COC(Cn4ccnc4)(c4ccc(Cl)cc4Cl)O3)cc2)CC1 (stereo not shown) [Ketoconazole, reference compound] |  |  |  |  |  | aldosterone secretion ([1]; H295R): significant concentration-dependent decrease; IC50 ([1]; 6 h, read-out: IC50 of DHEA production): 51.8 nM; IC50 ([1]; 6 h, read-out: IC50 of aldosterone production): 13100 nM; IC50 ([1]; 6 h, read-out: IC50 of androstendione production): 59.6 nM; IC50 ([1]; 6 h, read-out: IC50 of cortisol production): 155 nM; inhibition at 2.5 µM [1, 8]: 94.4 ± 0.6%; inhibition at 2.5 µM [1, 9]: 33.3 ± 3.3%; inhibition at 2.5 µM [1, 10]: 89.2 ± 1.2%; inhibition at 2.5 µM [1, 11]: 88.1 ± 1%
COC(=O)c1ccc2cc(-c3cccnc3)ccc2c1 [Compound 16, Methyl-6-pyridin-3-yl-2-naphthoate] | 1250 nM | 66% | 10500 nM | 73 nM | 12% | 
COc1ccc2c(c1)CCC(n1ccnc1)=C2 [Compound 46, 1-(6-Methoxy-3,4-dihydronaphthalene-2-yl)-1H-imidazole] |  |  |  |  |  | CYP11B2 inhibition in S. pombe (CYP11B2 [5]): very low; inhibition at 0.5 µM (CYP11B2 [5]; read-out: % Inhibition Human hCYP11B2): 35%; IC50 (CYP11B1 [6]; [16]): 206 to 805 nM; IC50 (CYP11B1 [6]; read-out: IC50 value V79 11B1 hCY11B1): 763 nM
Oc1ccc2cc(-c3cccnc3)ccc2c1 [Compound 3, 6-Pyridin-3-yl-2-naphthol] |  | 88% | 715 nM | 23 nM | 65% | % Inhib. Human CYP19 (values in brackets) (human placental CYP19): [61] %
CCOc1ccc2cc(-c3cccnc3)ccc2c1 [Compound 5, 3-(6-Ethoxy-2-naphthyl)pyridine] | 6640 nM | 86% | 883 nM | 12 nM | 53% | 
c1cncc(-c2ccc3ccccc3c2)c1 [Compound 1, 3-(2-Naphthyl)pyridine] |  |  |  |  | 40% | influence on CYP11B1 in comparison with fadrozole (CYP11B1 [2]): clearly lower extent; inhibition at 2.5 µM (CYP11B1 [3]): 43.4 ± 4.7%; inhibition at 2.5 µM (CYP11B2 [4]; [12]): 45.6 ± 2.2%; inhibition at 2.5 µM (CYP11B2 [4]; [13]): 82.9 ± 0.9%
COc1ccc2ccc(-c3cccnc3)cc2c1 [Compound 13, 3-(7-Methoxy-2-naphthyl)pyridine] |  | 46% |  |  |  | 
